The values that follow come from US20240327430A1 (Breakpoint Therapeutics GmbH, priority 2023, published 2024).

Molecules are shown by their SMILES.

Sequence of truncated Polθ protein (Polθ-Hel containing the helicase domain (67-894)) (O75417 67-894): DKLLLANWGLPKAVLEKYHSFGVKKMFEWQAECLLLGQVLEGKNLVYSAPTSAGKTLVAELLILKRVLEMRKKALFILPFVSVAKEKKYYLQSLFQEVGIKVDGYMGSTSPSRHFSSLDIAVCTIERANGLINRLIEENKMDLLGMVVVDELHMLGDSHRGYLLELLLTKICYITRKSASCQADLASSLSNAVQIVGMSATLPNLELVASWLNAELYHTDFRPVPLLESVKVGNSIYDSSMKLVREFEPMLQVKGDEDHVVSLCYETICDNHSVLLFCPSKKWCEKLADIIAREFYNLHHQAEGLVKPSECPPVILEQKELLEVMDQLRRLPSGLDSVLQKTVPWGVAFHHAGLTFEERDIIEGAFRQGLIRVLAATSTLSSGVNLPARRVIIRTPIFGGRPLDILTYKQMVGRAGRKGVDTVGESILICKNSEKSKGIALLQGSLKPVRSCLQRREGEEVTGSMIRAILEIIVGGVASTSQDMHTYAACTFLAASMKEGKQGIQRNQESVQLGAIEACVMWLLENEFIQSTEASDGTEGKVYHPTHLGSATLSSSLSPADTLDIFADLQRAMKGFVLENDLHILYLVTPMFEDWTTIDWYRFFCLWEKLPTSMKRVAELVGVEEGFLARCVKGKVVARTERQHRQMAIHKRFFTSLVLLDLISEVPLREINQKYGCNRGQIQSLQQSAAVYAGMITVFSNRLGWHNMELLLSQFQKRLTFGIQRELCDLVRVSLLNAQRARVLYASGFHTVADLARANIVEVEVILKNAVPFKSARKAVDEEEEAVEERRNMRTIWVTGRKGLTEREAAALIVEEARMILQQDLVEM

One assay has as its target truncated Polθ protein (Polθ-Hel containing the helicase domain (67-894)) (Homo sapiens (Human), UniProt O75417). Kind of assay: Polθ ATPase assay (Biological Assay 1, ADP-Glo luminescence). Conditions: Polθ-Hel 0.5 nM, DNA substrate 500 nM, ATP 60 μM, 23° C.; read-out: Pole ATPase assay IC50. Format: biochemical. The method in brief: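 Polθ-Hel (0.5 nM) with 500 nM ssDNA oligo in pH 8.8 Tris buffer (5 mM MgCl2, 1 mM DTT) was preincubated with compound 30 min at 23 °C. The reaction ran 60 min after 60 μM ATP was added (stated as the added solution, not final). ADP formed was detected by ADP-Glo luminescence to derive IC50.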
As to `COc1cnc(Cl)cc1-c1cc(C)ncc1C(=O)Nc1nc2cnc(NCC(C)(C)O)nc2s1` [Example 77, 2′-chloro-N-{5-[(2-hydroxy-2-methylpropyl)amino]-[1,3]thiazolo[5,4-d]pyrimidin-2-yl}-5′-methoxy-6-methyl-[4,4′-bipyridine]-3-carboxamide], the IC50 was less than 100 nM. As for `COc1cnc(Cl)cc1-c1cc(C)ncc1C(=O)Nc1nc2cnc(NCC(C)C)nc2s1` [Example 78, 2′-chloro-5′-methoxy-6-methyl-N-{5-[(2-methylpropyl)amino]-[1,3]thiazolo[5,4-d]pyrimidin-2-yl}-[4,4′-bipyridine]-3-carboxamide], the IC50 was less than 100 nM. With `COc1cnc(Cl)cc1-c1cc(C)ncc1C(=O)Nc1nc2cnc(NC3CCC3)nc2s1` [Example 79, 2′-chloro-N-[5-(cyclobutylamino)-[1,3]thiazolo[5,4-d]pyrimidin-2-yl]-5′-methoxy-6-methyl-[4,4′-bipyridine]-3-carboxamide], the IC50 was less than 100 nM. As to `COc1cnc(Cl)cc1-c1cc(C)ncc1C(=O)Nc1nc2cnc(N3CCC(OC)CC3)nc2s1` [Example 80, 2′-chloro-5′-methoxy-N-[5-(4-methoxypiperidin-1-yl)-[1,3]thiazolo[5,4-d]pyrimidin-2-yl]-6-methyl-[4,4′-bipyridine]-3-carboxamide], the concentration for half-maximal inhibition (IC50) was less than 100 nM. As for `COc1cnc(Cl)cc1-c1cc(C)ncc1C(=O)Nc1nc2cnc(N3CC4(CC(O)C4)C3)nc2s1` [Example 81, 2′-chloro-N-(5-{6-hydroxy-2-azaspiro[3.3]heptan-2-yl}-[1,3]thiazolo[5,4-d]pyrimidin-2-yl)-5′-methoxy-6-methyl-[4,4′-bipyridine]-3-carboxamide], the IC50 was less than 100 nM. Take `COc1cnc(Cl)cc1-c1cc(C)ncc1C(=O)Nc1nc2cnc(N3CC4(CCOC4)C3)nc2s1` [Example 82, 2′-chloro-5′-methoxy-6-methyl-N-(5-{6-oxa-2-azaspiro[3.4]octan-2-yl}-[1,3]thiazolo[5,4-d]pyrimidin-2-yl)-[4,4′-bipyridine]-3-carboxamide]: the IC50 was less than 100 nM. On to `COc1cnc(Cl)cc1-c1cc(C)ncc1C(=O)Nc1nc2ccc(S(C)(=N)=O)cc2s1` (stereo not shown) [Example 83, 2′-chloro-N-{6-[imino(methyl)oxo-λ^6-sulfanyl]-1,3-benzothiazol-2-yl}-5′-methoxy-6-methyl-[4,4′-bipyridine]-3-carboxamide], for which the IC50 was less than 100 nM.

For `COc1cnc(Cl)cc1-c1cc(C)ncc1C(=O)Nc1nc2ccc(N3CCCS3(=O)=O)cc2s1` [Example 84], the 50% inhibitory concentration (IC50) is less than 100 nM. Turning to `COc1cnc(Cl)cc1-c1cc(C)ncc1C(=O)Nc1nc2ccc(N3CC[C@@H](O)CC3=O)cc2s1` [Example 85, 2′-chloro-N-{6-[(4R)-4-hydroxy-2-oxopiperidin-1-yl]-1,3-benzothiazol-2-yl}-5′-methoxy-6-methyl-[4,4′-bipyridine]-3-carboxamide], the IC50 is less than 100 nM. On the same count and under the same terms, next, `COc1cnc(Cl)cc1-c1cc(C)ncc1C(=O)Nc1nc2ccc(N3CCN(C)CC3=O)cc2s1` [Example 86, 2′-chloro-5′-methoxy-6-methyl-N-[6-(4-methyl-2-oxopiperazin-1-yl)-1,3-benzothiazol-2-yl]-[4,4′-bipyridine]-3-carboxamide]: less than 100 nM; `COc1cnc(Cl)cc1-c1cc(C)ncc1C(=O)Nc1nc2cnc(C3=CCOCC3)nc2s1` [Example 87, 2′-chloro-N-[5-(3,6-dihydro-2H-pyran-4-yl)-[1,3]thiazolo[5,4-d]pyrimidin-2-yl]-5′-methoxy-6-methyl-[4,4′-bipyridine]-3-carboxamide]: less than 100 nM; `COc1cnc(C(F)(F)F)cc1-c1cc(C)ncc1C(=O)Nc1nc2cnc(N3CCC(O)CC3)nc2s1` [Example 88, N-[5-(4-hydroxypiperidin-1-yl)-[1,3]thiazolo[5,4-d]pyrimidin-2-yl]-5′-methoxy-6-methyl-2′-(trifluoromethyl)-[4,4′-bipyridine]-3-carboxamide]: less than 100 nM. For `COc1cnc(C(F)F)cc1-c1cc(C)ncc1C(=O)Nc1nc2cnc(N3CCOCC3)nc2s1` [Example 89], the IC50 was less than 100 nM. On the same count and under the same terms, next, `COc1cnc(Cl)cc1-c1cc(C)ncc1C(=O)Nc1nc2cnc(C(F)(F)F)nc2s1` [Example 90, 2′-chloro-5′-methoxy-6-methyl-N-[5-(trifluoromethyl)-[1,3]thiazolo[5,4-d]pyrimidin-2-yl]-[4,4′-bipyridine]-3-carboxamide]: less than 100 nM. As to `COc1cnc(Cl)cc1-c1cc(C)ncc1C(=O)Nc1nc2cnc(C)nc2s1` [Example 91, 2′-chloro-5′-methoxy-6-methyl-N-{5-methyl-[1,3]thiazolo[5,4-d]pyrimidin-2-yl}-[4,4′-bipyridine]-3-carboxamide], the 50% inhibitory concentration (IC50) is less than 100 nM. Consider `COc1cnc(C)cc1-c1cc(C)ncc1C(=O)Nc1nc2cnc(N3CCOCC3)nc2s1` [Example 92, 5′-methoxy-2′,6-dimethyl-N-[5-(morpholin-4-yl)-[1,3]thiazolo[5,4-d]pyrimidin-2-yl]-[4,4′-bipyridine]-3-carboxamide], for which the 50% inhibitory concentration (IC50) is less than 100 nM. For the compound `COc1cnc(F)cc1-c1cc(C)ncc1C(=O)Nc1nc2cnc(N3CCOCC3)nc2s1` [Example 93, 2′-fluoro-5′-methoxy-6-methyl-N-[5-(morpholin-4-yl)-[1,3]thiazolo[5,4-d]pyrimidin-2-yl]-[4,4′-bipyridine]-3-carboxamide], the 50% inhibitory concentration (IC50) is less than 100 nM. The same measure, in the same setting: next, `COc1cnc(Cl)cc1-c1cc(C)ncc1C(=O)Nc1nc2cnc(N3CCCCC3=O)nc2s1` [Example 94, 2′-chloro-5′-methoxy-6-methyl-N-[5-(2-oxopiperidin-1-yl)-[1,3]thiazolo[5,4-d]pyrimidin-2-yl]-[4,4′-bipyridine]-3-carboxamide]: less than 100 nM.

The same assay, now with this note: Table B; compounds of Experimental Part B, in vitro; read-out: Polθ ATPase assay IC50.
For `COc1cnc(Cl)cc1-c1cc(C)ncc1C(=O)Nc1nc2cnc(NC[C@@H](C)O)nc2s1` [Example 95, 2′-chloro-N-(5-{[(2R)-2-hydroxypropyl]amino}-[1,3]thiazolo[5,4-d]pyrimidin-2-yl)-5′-methoxy-6-methyl-[4,4′-bipyridine]-3-carboxamide], the IC50 is less than 100 nM. As for `COc1cnc(Cl)cc1-c1cc(C)ncc1C(=O)Nc1nc2cnc(NC[C@H](C)O)nc2s1` [Example 96, 2′-chloro-N-(5-{[(2S)-2-hydroxypropyl]amino}-[1,3]thiazolo[5,4-d]pyrimidin-2-yl)-5′-methoxy-6-methyl-[4,4′-bipyridine]-3-carboxamide], the IC50 was less than 100 nM. Take `COc1cnc(Cl)cc1-c1cc(C)ncc1C(=O)Nc1nc2cnc(N3CC(C)(OC)C3)nc2s1` [Example 97, 2′-chloro-5′-methoxy-N-[5-(3-methoxy-3-methylazetidin-1-yl)-[1,3]thiazolo[5,4-d]pyrimidin-2-yl]-6-methyl-[4,4′-bipyridine]-3-carboxamide]: the IC50 is less than 100 nM. For the compound `COc1cnc(Cl)cc1-c1cc(C)ncc1C(=O)Nc1nc2c(Br)cccc2s1` [Example 99, N-(4-bromo-1,3-benzothiazol-2-yl)-2′-chloro-5′-methoxy-6-methyl-[4,4′-bipyridine]-3-carboxamide], the IC50 was less than 100 nM. On the same count and under the same terms, with `COc1cnc(Cl)cc1-c1cc(C)ncc1C(=O)Nc1nc2c(CCC(=O)N(C)C)cccc2s1` [Example 100, 2′-chloro-N-{4-[2-(dimethylcarbamoyl)ethyl]-1,3-benzothiazol-2-yl}-5′-methoxy-6-methyl-[4,4′-bipyridine]-3-carboxamide] the figure was less than 100 nM; with `COc1cnc(Cl)cc1-c1cc(C)ncc1C(=O)Nc1nc2cc(OCC#N)ccc2s1` [Example 101, 2′-chloro-N-[5-(cyanomethoxy)-1,3-benzothiazol-2-yl]-5′-methoxy-6-methyl-[4,4′-bipyridine]-3-carboxamide], less than 100 nM; with `CNC(=O)C(F)(F)Oc1ccc2sc(NC(=O)c3cnc(C)cc3-c3cc(Cl)ncc3OC)nc2c1` [Example 102, 2′-chloro-N-{5-[difluoro(methylcarbamoyl)Methoxy]-1,3-benzothiazol-2-yl}-5′-methoxy-6-methyl-[4,4′-bipyridine]-3-carboxamide], less than 100 nM. For `COc1cnc(Cl)cc1-c1cc(C)ncc1C(=O)Nc1nc2cc(Br)ccc2s1` [Example 103, N-(5-bromo-1,3-benzothiazol-2-yl)-2′-chloro-5′-methoxy-6-methyl-[4,4′-bipyridine]-3-carboxamide], the IC50 is less than 100 nM. For the compound `COc1cnc(Cl)cc1-c1cc(C)ncc1C(=O)Nc1nc2cc(OC(F)(F)C(=O)N(C)C)ccc2s1` [Example 104, 2′-chloro-N-{5-[(dimethylcarbamoyl)difluoromethoxy]-1,3-benzothiazol-2-yl}-5′-methoxy-6-methyl-[4,4′-bipyridine]-3-carboxamide], the IC50 was less than 100 nM. In the case of `CNC(=O)c1ccc2sc(NC(=O)c3cnc(C)cc3-c3cc(Cl)ncc3OC)nc2c1` [Example 105, 2′-chloro-5′-methoxy-6-methyl-N-[5-(methylcarbamoyl)-1,3-benzothiazol-2-yl]-[4,4′-bipyridine]-3-carboxamide], the IC50 is less than 100 nM.

For `COc1ccc2sc(NC(=O)c3cnc(C)cc3-c3cc(Cl)ncc3OC)nc2c1` [Example 106, 2′-chloro-5′-methoxy-N-(5-methoxy-1,3-benzothiazol-2-yl)-6-methyl-[4,4′-bipyridine]-3-carboxamide], the IC50 is less than 100 nM. The same measure, in the same setting: with `COCCNC(=O)c1ccc2sc(NC(=O)c3cnc(C)cc3-c3cc(Cl)ncc3OC)nc2c1` [Example 107, 2′-chloro-5′-methoxy-N-{5-[(2-methoxyethyl)carbamoyl]-1,3-benzothiazol-2-yl}-6-methyl-[4,4′-bipyridine]-3-carboxamide] the figure was less than 100 nM.

Turning to `COc1cnc(Cl)cc1-c1cc(C)ncc1C(=O)Nc1nc2c(OCC(=O)N(C)C)ncnc2s1` [Example 108, 2′-chloro-N-{7-[(dimethylcarbamoyl)methoxy]-[1,3]thiazolo[5,4-d]pyrimidin-2-yl}-5′-methoxy-6-methyl-[4,4′-bipyridine]-3-carboxamide], the IC50 was less than 100 nM.
